In PubChem BioAssay (NCI) one finds TGI and GI50 data, which are given here for 14 compounds.

Common to all, as to assay: NCI anticancer screen, dose series, 48 h
Assay [1] concerns K-562 leukemia.
Assay [2] has as its system HOP-92 NSCLC.
The subject of assay [3] is LOX IMVI melanoma.
For assay [4], the system named is COLO 205 colon.
Assay [5] has as its system HCT-15 colon.
Assay [6] relates to EKVX NSCLC.
Assay [7] concerns RXF 393 renal.
In assay [8] the test system is RPMI-8226 leukemia.
The test system of assay [9] is SF-268 CNS.

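These data come from cells grown in 96-well plates and exposed to compound for 48 hours at five concentrations. Here, GI50 denotes the concentration required for 50% inhibition of growth. The concentration for full growth arrest is given as TGI.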

On to `O=[N+]([O-])c1ccc(Cl)c(C2CC(c3cccc4ccccc34)=Nc3ccccc3S2=O)c1` (stereo not drawn), for which the TGI is 37 µM in assay [1]; 22.8 µM in [2]; over 31.6 µM in assay [3]; 97.7 µM in assay [4]; over 100 µM in assay [5]; over 100 µM in [6]. Besides, the TGI in [7] was 21.1 µM; in assay [8], 7.7 µM; in [9], over 100 µM.
For the compound `CCC(=O)N1C(=S)SC[C@H]1C(=O)OC`, the TGI in assay [1], in assay [2], in assay [3], in [4], in assay [6] and in [7] was over 100 µM in each case. In [9], this compound showed a TGI of over 100 µM.
In the case of `CCOc1ccc2c(c1)[n+]([O-])c(C(N)=O)c(N)[n+]2[O-]`, the TGI in assay [1], in assay [2], in [4], in assay [6], in [7] and in assay [9] was over 100 µM throughout.
As to `O=c1c(-c2cccc3ccccc23)c(-c2cccc3ccccc23)c1=O`, the TGI in assay [1] is over 33.3 µM; in assay [2], 39.4 µM; in assay [3] it was 27.3 µM; in assay [4] it was 1.64 µM; in [5], over 52.9 µM; in assay [6], over 39.4 µM. The results for the TGI in assay [7], in [8] and in [9] were 45.7 µM, over 100 µM and over 53.7 µM, respectively.
In the case of `O=C1/C(=C/c2cc(O)c(O)c(O)c2)Oc2cc(O)cc(OC3OC(CO)C(O)C(O)C3O)c21` (stereo not drawn), the TGI is 34.9 µM in [1]; 38.7 µM in assay [2]; 54.1 µM in assay [4]; 57.5 µM in [5]; over 100 µM in assay [6]; 67.9 µM in assay [8].
With `c1ccc2[nH]c(-c3ccc(Nc4nc(N5CCCC5)nc5[nH]ncc45)cc3)nc2c1`, the GI50 in assay [1] was 0.202 µM; in assay [2], 1.14 µM; in [4], 0.217 µM; in assay [5], 0.255 µM; in [6], 1.45 µM; in assay [7], 0.814 µM. Besides, the values for the GI50 in assay [8] and in assay [9] were 0.221 µM and 0.62 µM, respectively. For the same compound, the TGI was 0.466 µM in assay [1]; 2.75 µM in assay [2]; 0.486 µM in [4]; 0.763 µM in assay [5]; 3.12 µM in assay [6]; 2.27 µM in assay [7]. Also, the TGI in assay [8] was determined as 0.528 µM; in assay [9], 2.42 µM.
For the compound `CCN(CC)C(=O)c1cccc2c(OC)ccc(OC)c12`, the TGI in assay [1], in assay [3], in assay [4], in assay [5], in assay [6] and in [7] was over 100 µM each time. For the same compound, the TGI in assay [8] and in assay [9] was over 100 µM in each case.
In the case of `O=S(=O)(c1ccccc1)N1CCC1c1ccccc1` (stereo not drawn), the TGI in assay [1], in assay [2], in assay [3], in assay [4], in [5] and in [6] was over 100 µM in each case. In addition, the TGI in assay [7], in [8] and in [9] was over 100 µM each time.
In the case of `CN(c1ccccc1)c1nc(=[N+](C)C)ss1`, the TGI in assay [1], in assay [2], in [5], in [6], in [7] and in assay [9] was over 100 µM each time.
Take `CN(C)C(=C1C(Br)=C(Br)C(Br)=C1Br)N(C)C`: the TGI in [1] was over 100 µM; in assay [2], over 100 µM; in assay [3], 55.6 µM; in assay [4], over 100 µM; in assay [5] it was over 100 µM; in assay [6] it was over 100 µM. The results for the TGI in [7], in assay [8] and in [9] were over 100 µM, 76.7 µM and over 100 µM, respectively.
As for `O=S1(=O)[C@H](c2ccccc2)c2c(-c3ccccc3)sc(-c3ccccc3)c2[C@@H]1c1ccccc1`, the TGI in [1], in [2], in assay [3], in assay [4], in [5] and in [6] was over 100 µM throughout. Further, the TGI in assay [7], in assay [8] and in assay [9] was over 100 µM each time.
For the compound `CC[O-].CC[O-].[O-]c1ccccc1C=NC12CC3CC(CC(C3)C1)C2.[O-]c1ccccc1C=NC12CC3CC(CC(C3)C1)C2.[Ti+4]`, the GI50 in assay [1] is 31.4 µM; in assay [2], 34.4 µM; in assay [3] it was 57.8 µM; in assay [4], 67.3 µM; in assay [6], over 100 µM; in [7] it was 53.9 µM. The results for the GI50 in assay [8] and in [9] were 57.6 µM and 92.5 µM, respectively. For the same compound, the TGI in assay [1], in [2], in assay [3], in assay [4], in [6] and in assay [7] was over 100 µM in each case. Further, the TGI in assay [8] and in [9] was over 100 µM in each case.
With `OC(c1ccccc1)c1c(-c2ccccc2)[nH]c(-c2ccccc2)c1C(O)c1ccccc1` (stereo not drawn), the TGI in [1] was 4.64 µM; in [2], 5.46 µM; in assay [3], 7.37 µM; in assay [4] it was 3.15 µM; in [5] it was 40.1 µM; in assay [6], 13.9 µM. Moreover, the TGI stood at 10.3 µM in assay [7], 5.02 µM in assay [8] and 23 µM in assay [9].
As to `CC1COS(=O)N1c1ccccc1` (stereo not drawn), the TGI in assay [1], in [2], in assay [3], in assay [4], in assay [5] and in [6] was over 100 µM in each case. Moreover, the TGI in assay [7], in assay [8] and in [9] was over 100 µM each time.
